Results on 20 molecules are retold here after ChEMBL document CHEMBL5442168, “ASAP - In vitro liver microsomal stability” (2024).

“And” between values parts separate entries of the source, which are not always exact repeats. Equal values may be shown once.

A short description of data set [1]: Human liver microsomal stability of compound in microsomal protein, PBS buffer pH 7.4, NADPH, glucose-6-phosphate and glucose-6-phosphate dehydrogenase media. Aliquotes were taken at 5 time points and after stopping the reaction, supernatants were analyzed using HPLC coupled with a tandem mass spectrometer. The elimination constant, half-life, and intrinsic clearance are determined as results using linear regression analysis. The assay has been performed by Enamine biological services, Bienta Ltd.The protocol is publicly available: dx.doi.org/10.17504/protocols.io.5qpvokdb9l4o/v1. The class given is ADME, microsomes, Microsome. Conditions: for half-life / microsomal CLint: liver microsomes; for Remaining / Remaining (without cofactor) / CLint / T1/2: microsomes. A general note: Microsomes from liver hold many membrane-bound enzymes, among them those of drug oxidation.

Data set [2] is described as follows: Mouse liver microsomal stability of compound in microsomal protein, PBS buffer pH 7.4, NADPH, glucose-6-phosphate and glucose-6-phosphate dehydrogenase media. Aliquotes were taken at 5 time points and after stopping the reaction, supernatants were analyzed using HPLC coupled with a tandem mass spectrometer. The elimination constant, half-life, and intrinsic clearance are determined as results using linear regression analysis. The assay has been performed by Enamine biological services, Bienta Ltd.The protocol is publicly available: dx.doi.org/10.17504/protocols.io.5qpvokdb9l4o/v1. The data set is classed as ADME, microsomes, Microsome. The settings on record: for half-life / microsomal CLint: liver microsomes; for Remaining / Remaining (without cofactor) / CLint / T1/2: microsomes.
For Remaining (without cofactor) in this document: time not given here.
For Remaining in this document: time not given here.

Take `CC(C)[C@H](Nc1ncnc2[nH]c(C(=O)N[C@H]3CCN(C)C3)cc12)c1ccc2c(c1)S(=O)(=O)CCC2`: in data set [1], the half-life was 150 min, the microsomal CLint was found to be 11 µL/min/mg, the Remaining was 80% and the “Remaining (without cofactor)” value is listed as 98%. For the same molecule, in data set [2], the half-life turned out to be 1540 min, the microsomal CLint was 1 µL/min/mg, the Remaining was 98% and the “Remaining (without cofactor)” value is listed as 97%.

`COc1ccc2c(c1)CCN(c1ncnc3[nH]ccc13)[C@H]2C(C)C`: in data set [1], the half-life was 27.8 min, the microsomal CLint amounted to 60 µL/min/mg, the Remaining turned out to be 38% and the “Remaining (without cofactor)” value was found to be 103%. Also, in data set [2], the half-life stood at 5.2 min, the microsomal CLint came out at 321 µL/min/mg, the Remaining was found to be 1% and the “Remaining (without cofactor)” value is recorded as 83%.

`COc1ccc([C@@H](CC(=O)O)NC(=O)c2ncnc3[nH]ccc23)cc1`: in data set [1], the half-life turned out to be 240 min, the microsomal CLint came to 7 µL/min/mg, the Remaining was 87% and the “Remaining (without cofactor)” value is reported as 88%. In data set [2], the half-life came to 686 min, the microsomal CLint was found to be 2 µL/min/mg, the Remaining was 94% and the “Remaining (without cofactor)” value is on record as 96%.

As for `CC(C)[C@@H](Nc1ncnc2[nH]c(-c3cncc(S(C)(=O)=O)c3)cc12)c1ccc2c(c1)S(=O)(=O)CCC2`, in data set [1], the half-life came out at 2.6 min, the microsomal CLint was found to be 635 µL/min/mg, the Remaining worked out at 1% and the “Remaining (without cofactor)” value is on record as 104%. Also, in data set [2], the half-life worked out at 6.1 min, the microsomal CLint was found to be 272 µL/min/mg, the Remaining came to 1% and the “Remaining (without cofactor)” value worked out at 112%.

Consider `CC(C)[C@H](Nc1ncnc2[nH]c(-c3cnn(C)c3C#N)cc12)c1ccc2c(c1)NC(=O)CO2`, for which, in data set [1], the half-life came out at 14.6 min, the microsomal CLint was 115 µL/min/mg, the Remaining amounted to 16% and the “Remaining (without cofactor)” value turned out to be 101%. For the same molecule, in data set [2], the half-life amounted to 20.7 min, the microsomal CLint is 81 µL/min/mg, the Remaining turned out to be 27% and the “Remaining (without cofactor)” value is 96%.

Regarding `CC(C)[C@@H](Nc1ncnc2[nH]ccc12)c1ccc2c(c1)S(=O)(=O)CCC2`, in data set [1], the half-life was determined as 44.7 min; the microsomal CLint is 37 µL/min/mg; the CLint came out at 21 µL/min/mg; the Remaining is 53% and 69%. Further, in data set [1], the “Remaining (without cofactor)” value came to 99% and the T1/2 is reported as 78.6 min. Moreover, in data set [2], the CLint was 138 µL/min/mg and 55 µL/min/mg; the “Remaining (without cofactor)” value was 103% and 117%; the T1/2 was 12.1 min and 30.4 min.

As for `CC(C)[C@@H](Nc1ncnc2[nH]cc(C(N)=O)c12)c1ccc2c(c1)OCCO2`, in data set [1], the half-life stood at 11.7 min, the microsomal CLint worked out at 143 µL/min/mg, the Remaining is listed as 9% and the “Remaining (without cofactor)” value came to 110%. In data set [2], the half-life was determined as 11.7 min, the microsomal CLint stood at 142 µL/min/mg, the Remaining worked out at 9% and the “Remaining (without cofactor)” value is on record as 98%.

In the case of `CC(C)[C@H](Nc1ncnc2[nH]c(-c3cnn(C)c3C#N)cc12)c1ccc2c(n1)NC(=O)CO2`, in data set [1], the half-life was found to be 12.2 min, the microsomal CLint was 137 µL/min/mg, the Remaining stood at 10% and the “Remaining (without cofactor)” value is on record as 92%. In data set [2], the half-life is 12.8 min, the microsomal CLint was determined as 131 µL/min/mg, the Remaining was found to be 12% and the “Remaining (without cofactor)” value is recorded as 85%.

Consider `CNC(=O)c1cccc(-c2cc3c(N[C@@H](c4ccc5c(c4)S(=O)(=O)CCC5)C(C)C)ncnc3[nH]2)c1`, for which, in data set [1], the half-life was 3.7 min, the microsomal CLint was 455 µL/min/mg, the Remaining worked out at 0% and the “Remaining (without cofactor)” value was 93%. Besides, in data set [2], the half-life was found to be 1.9 min, the microsomal CLint came out at 882 µL/min/mg, the Remaining is reported as 1% and the “Remaining (without cofactor)” value is 101%.

Consider `COc1ccc([C@H](Cc2nnn[nH]2)NC(=O)c2ncnc3[nH]ccc23)cc1`, for which, in data set [1], the half-life is 1090 min, the microsomal CLint was 2 µL/min/mg, the Remaining came to 105.597% and the “Remaining (without cofactor)” value is on record as 84.68%. Further, in data set [2], the half-life turned out to be 206 min, the microsomal CLint is 7 µL/min/mg, the Remaining was found to be 115.387% and the “Remaining (without cofactor)” value amounted to 100.411%.

As for `CCNC(=O)c1cc2c(N[C@@H](c3ccc4c(c3)S(=O)(=O)CCC4)C(C)C)ncnc2[nH]1`, in data set [1], the Remaining is 15% and 0%; the “Remaining (without cofactor)” value is 98% and 102%. Also, in data set [2], the half-life worked out at 19.5 min; the intrinsic metabolic clearance (microsomal CLint) was determined as 85 µL/min/mg; the CLint was determined as 54 µL/min/mg; the Remaining is 21% and 43%. Besides, in data set [2], the “Remaining (without cofactor)” value is 95% and 114%; the T1/2 is reported as 30.8 min.

As to `CNC(=O)c1cc2c(N[C@H](c3ccc4c(c3)S(=O)(=O)CCC4)C(C)C)ncnc2[nH]1`, in data set [1], the half-life worked out at 25 min, the microsomal CLint stood at 67 µL/min/mg, the Remaining was 33% and the “Remaining (without cofactor)” value is reported as 107%. Besides, in data set [2], the half-life turned out to be 35.3 min, the microsomal CLint turned out to be 47 µL/min/mg, the Remaining turned out to be 42% and the “Remaining (without cofactor)” value stood at 106%.

For `CCNC(=O)c1cc2c(N[C@H](c3ccc4c(c3)S(=O)(=O)CCC4)C(C)C)ncnc2[nH]1`, in data set [1], the half-life was found to be 15.4 min, the microsomal CLint was 109 µL/min/mg, the Remaining turned out to be 17% and the “Remaining (without cofactor)” value came to 102%. In data set [2], the half-life worked out at 26.3 min, the microsomal CLint is 64 µL/min/mg, the Remaining is given as 34% and the “Remaining (without cofactor)” value is reported as 97%.

Regarding `C[C@H](C(=O)O)[C@@H](NC(=O)c1ncnc2[nH]ccc12)c1ccc(Br)cc1`, in data set [1], the half-life came out at 574 min, the microsomal CLint stood at 3 µL/min/mg, the Remaining is recorded as 92.211% and the “Remaining (without cofactor)” value is 101.611%. Also, in data set [2], the half-life was 380 min, the microsomal CLint amounted to 4 µL/min/mg, the Remaining turned out to be 111.226% and the “Remaining (without cofactor)” value amounted to 100.245%.

`CNC(=O)Cn1cc(-c2cc3c(N[C@@H](c4ccc5c(c4)OCCO5)C(C)C)ncnc3[nH]2)cn1`: in data set [1], the half-life was 14 min, the microsomal CLint was 119 µL/min/mg, the Remaining is listed as 14% and the “Remaining (without cofactor)” value was 92%. Also, in data set [2], the half-life amounted to 35.7 min, the microsomal CLint came out at 47 µL/min/mg, the Remaining was 46% and the “Remaining (without cofactor)” value worked out at 90%.

`CC(C)(C)[C@@H](Nc1ncnc2[nH]c(-c3cnn(CC(N)=O)c3)cc12)c1ccc2c(n1)OCCO2`: in data set [1], the half-life worked out at 46 min; the microsomal CLint was determined as 36 µL/min/mg; the CLint was determined as 42 µL/min/mg; the Remaining was 55% and 49%. In addition, in data set [1], the “Remaining (without cofactor)” value is 96% and 107%; the T1/2 amounted to 39.8 min. In addition, in data set [2], the half-life was found to be 53.1 min; the intrinsic clearance (microsomal CLint) was 31 µL/min/mg; the CLint came out at 30 µL/min/mg; the Remaining is 60% and 59%. In data set [2], the “Remaining (without cofactor)” value was 90% and 109%; the T1/2 is reported as 56.2 min.

Turning to `CNC(=O)c1cc2c(N[C@@H](c3ccc4c(c3)NC(=O)CO4)C(C)C)ncnc2[nH]1`, the “Remaining (without cofactor)” value in data set [1] is 94% and 96%. For the same molecule, in data set [2], the half-life worked out at 84.4 min; the microsomal CLint is 20 µL/min/mg; the CLint worked out at 33 µL/min/mg; the Remaining is 71% and 57%. In data set [2], the “Remaining (without cofactor)” value was 103% and 99%; the T1/2 was 51.2 min.

In data set [1], `CC(C)[C@@H](Nc1ncnc2[nH]c(-c3cnn(CC(N)=O)c3)cc12)c1ccc2c(c1)S(=O)(=O)CCC2` displayed a half-life of 14.4 min, a microsomal CLint of 116 µL/min/mg, a CLint of 115 µL/min/mg and a Remaining of 15%. Also, in data set [1], the “Remaining (without cofactor)” value is 95% and 103%; the T1/2 is recorded as 14.5 min. In addition, in data set [2], the half-life came out at 27.4 min; the microsomal CLint was found to be 61 µL/min/mg; the CLint was 96 µL/min/mg; the Remaining was 37% and 20%. For the same molecule, in data set [2], the “Remaining (without cofactor)” value is 109% and 111%; the T1/2 stood at 17.4 min.

As for `CNC(=O)c1cc2c(N[C@@H](c3ccc4c(c3)OCCO4)C(C)C)ncnc2[nH]1`, in data set [1], the half-life was 21.1 min, the microsomal CLint came out at 79 µL/min/mg, the Remaining is reported as 23% and the “Remaining (without cofactor)” value is on record as 92%. Besides, in data set [2], the half-life came out at 30.5 min, the microsomal CLint is 55 µL/min/mg, the Remaining turned out to be 43% and the “Remaining (without cofactor)” value was determined as 112%.

For the molecule `CNC(=O)c1c[nH]c2ncnc(N[C@@H](c3ccc4c(c3)OCCO4)C(C)C)c12`, in data set [1], the half-life amounted to 21.2 min, the microsomal CLint was 79 µL/min/mg, the Remaining is on record as 27% and the “Remaining (without cofactor)” value stood at 113%. Besides, in data set [2], the half-life was 19 min, the intrinsic clearance (microsomal CLint) stood at 88 µL/min/mg, the Remaining is on record as 20% and the “Remaining (without cofactor)” value is given as 95%.

Usually half-life stands for the time needed for the level to fall by half in the phase considered. By microsomal CLint is commonly meant the capacity of the preparation to metabolise the compound, expressed as a volume cleared per time. Read a high microsomal CLint as faster metabolism.
